Measurements: the supplement of paper PMC10307832

What was measured:
Assay in all cases: relative viability (nuclei count vs DMSO), 5 days (fraction); higher = more cells survive
[1] = compound: CNC(=O)c1cc(Oc2ccc(NC(=O)Nc3ccc(Cl)c(C(F)(F)F)c3)cc2)ccn1 [Sorafenib] + O=C(CCCCCCC(=O)Nc1ccccc1)NO [Vorinostat] (partner 1 µM)
How it was run: (§1)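 Lung cancer cell lines were pin-tool dosed in 1536-well plates on the day after seeding, with either a lone drug or a fixed anchor-drug dose plus five library-drug doses (not always all listed) in √10 steps. Nuclei were counted on 4× images after 5 days. Relative viability is the ratio of treated-well to vehicle-well nuclei counts, with each value a median of duplicate plates.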

[2] = compound: CNC(=O)c1cc(Oc2ccc(NC(=O)Nc3ccc(Cl)c(C(F)(F)F)c3)cc2)ccn1 [Sorafenib] + CC(=O)Nc1cccc(-n2c(=O)n(C3CC3)c(=O)c3c(Nc4ccc(I)cc4F)n(C)c(=O)c(C)c32)c1 [Trametinib] (partner 0.02 µM)
How it was run: as §1

[3] = compound: CNC(=O)c1cc(Oc2ccc(NC(=O)Nc3ccc(Cl)c(C(F)(F)F)c3)cc2)ccn1 [Sorafenib] + CS(=O)(=O)CCNCc1ccc(-c2ccc3ncnc(Nc4ccc(OCc5cccc(F)c5)c(Cl)c4)c3c2)o1 [Lapatinib] (partner 2 µM)
How it was run: as §1

[4] = compound: CNC(=O)c1cc(Oc2ccc(NC(=O)Nc3ccc(Cl)c(C(F)(F)F)c3)cc2)ccn1 [Sorafenib] + Cc1nc(Nc2ncc(C(=O)Nc3c(C)cccc3Cl)s2)cc(N2CCN(CCO)CC2)n1 [Dasatinib] (partner 0.075 µM)
How it was run: as §1

[5] = compound: CNC(=O)c1cc(Oc2ccc(NC(=O)Nc3ccc(Cl)c(C(F)(F)F)c3)cc2)ccn1 [Sorafenib] + COc1cc2c(Oc3ccc(NC(=O)C4(C(=O)Nc5ccc(F)cc5)CC4)cc3F)ccnc2cc1OCCCN1CCOCC1 [Foretinib] (partner 0.25 µM)
How it was run: as §1

Row | Cell Line | relative viability ([1]; first compound 0.08 µM) | relative viability ([1]; first compound 0.253 µM) | relative viability ([1]; first compound 2.53 µM) | relative viability ([1]; first compound 8 µM) | relative viability ([2]; first compound 0.08 µM) | relative viability ([2]; first compound 0.253 µM) | relative viability ([2]; first compound 2.53 µM) | relative viability ([2]; first compound 8 µM) | relative viability ([3]; first compound 0.08 µM) | relative viability ([3]; first compound 0.253 µM) | relative viability ([3]; first compound 2.53 µM) | relative viability ([3]; first compound 8 µM) | relative viability ([4]; first compound 0.08 µM) | relative viability ([4]; first compound 0.253 µM) | relative viability ([4]; first compound 2.53 µM) | relative viability ([4]; first compound 8 µM) | relative viability ([5]; first compound 0.08 µM) | relative viability ([5]; first compound 0.253 µM) | relative viability ([5]; first compound 2.53 µM) | relative viability ([5]; first compound 8 µM)
1 | HCC-827 | 0.837 | 0.572 | 0.844 | 0.667 | 0.547 | 0.582 | 0.457 | 0.422 | 0.23 | 0.191 | 0.155 | 0.237 | 0.38 | 0.435 | 0.299 | 0.327 | 1.1 | 0.981 | 1.02 | 1.02
2 | HOP-62 | 0.736 | 0.363 | 0.368 | 0.276 | 0.438 | 0.45 | 0.372 | 0.209 | 0.928 | 0.872 | 0.879 | 0.93 | 0.796 | 0.527 | 0.584 | 0.59 | 1.05 | 0.916 | 0.749 | 0.676
3 | LC-2-ad | 0.723 | 0.674 | 0.617 | 0.514 | 0.934 | 0.822 | 0.732 | 0.396 | 1.05 | 0.878 | 0.587 | 0.314 | 0.721 | 0.376 | 0.427 | 0.33 | 0.923 | 0.989 | 0.985 | 0.744
4 | LCLC-97TM1 | 0.68 | 0.674 | 0.65 | 0.576 | 0.198 | 0.199 | 0.133 | 0.103 | 0.678 | 0.707 | 0.701 | 0.603 | 0.984 | 0.841 | 0.683 | 0.676 | 0.959 | 0.837 | 0.897 | 0.926
